This note sets out measurements from ChEMBL document CHEMBL5380794, “Discovery of a Potent and Selective STAT5 PROTAC Degrader with Strong Antitumor Activity In Vivo in Acute Myeloid Leukemia” (J Med Chem, 2023).

In one test the test system is SKNO-1. Nature of the test: Effect on STAT6 level in human SKNO-1 cells upto 5 uM measured for 18 hrs by Western blot analysis. It counts as functional, cell-based.
Test [1] relates to MV4-11. As to the kind of experiment: Effect on STAT3 level in human MV4-11 cells upto 5 uM measured for 18 hrs by Western blot analysis. Format: functional, cell-based. (A western blot detects proteins with antibodies after separation by electrophoresis.)
Test [2] is described as follows: Antiproliferative activity against human SKNO-1 cells assessed as cell growth inhibition measured for 4 days by celltiter-glo assay. The following applies: SKNO-1, 96 h. For orientation: In ATP-based viability assays light output follows the ATP content of the culture.
For test [3], the system named is MV4-11. As to the kind of experiment: Antiproliferative activity against human MV4-11 cells assessed as cell growth inhibition measured for 4 days by celltiter-glo assay. To be noted: MV4-11, 96 h.
Test [4] is described as follows: Antiproliferative activity against human Kasumi-3 cells assessed as maximal cell growth inhibition measured for 4 days by celltiter-glo assay relative to control. Format: functional. The following applies: time 4 day.
Test [5] in a line: Antiproliferative activity against human BDCM cells assessed as maximal cell growth inhibition measured for 4 days by celltiter-glo assay relative to control. To be noted: time 4 day. It counts as functional.
The subject of another test is Mus musculus. As to the kind of experiment: In vivo induction of degradation of STAT5 in human MV4-11 cells xenografted in SCID mouse assessed as reduction in STAT5 levels at 150 mg/kg, ip measured at 1 hrs by immunoblotting analysis. It counts as functional, organism-based. A general note: Xenograft models place foreign cells or tissue in a host animal.
Test [6] relates to MV4-11. Nature of the test: Antitumor activity against human MV4-11 cells xenografted in SCID mouse assessed as tumor growth inhibition at 100 mg/kg, ip administered 5 days a week for 3 weeks. Format: functional. To be noted: MV4-11, 504 h, read-out: TGI.
Test [7] addresses T1, STAT5A/STAT5B (Homo sapiens, UniProt P42229+P51692).
T1 sequence (P42229 whole entry): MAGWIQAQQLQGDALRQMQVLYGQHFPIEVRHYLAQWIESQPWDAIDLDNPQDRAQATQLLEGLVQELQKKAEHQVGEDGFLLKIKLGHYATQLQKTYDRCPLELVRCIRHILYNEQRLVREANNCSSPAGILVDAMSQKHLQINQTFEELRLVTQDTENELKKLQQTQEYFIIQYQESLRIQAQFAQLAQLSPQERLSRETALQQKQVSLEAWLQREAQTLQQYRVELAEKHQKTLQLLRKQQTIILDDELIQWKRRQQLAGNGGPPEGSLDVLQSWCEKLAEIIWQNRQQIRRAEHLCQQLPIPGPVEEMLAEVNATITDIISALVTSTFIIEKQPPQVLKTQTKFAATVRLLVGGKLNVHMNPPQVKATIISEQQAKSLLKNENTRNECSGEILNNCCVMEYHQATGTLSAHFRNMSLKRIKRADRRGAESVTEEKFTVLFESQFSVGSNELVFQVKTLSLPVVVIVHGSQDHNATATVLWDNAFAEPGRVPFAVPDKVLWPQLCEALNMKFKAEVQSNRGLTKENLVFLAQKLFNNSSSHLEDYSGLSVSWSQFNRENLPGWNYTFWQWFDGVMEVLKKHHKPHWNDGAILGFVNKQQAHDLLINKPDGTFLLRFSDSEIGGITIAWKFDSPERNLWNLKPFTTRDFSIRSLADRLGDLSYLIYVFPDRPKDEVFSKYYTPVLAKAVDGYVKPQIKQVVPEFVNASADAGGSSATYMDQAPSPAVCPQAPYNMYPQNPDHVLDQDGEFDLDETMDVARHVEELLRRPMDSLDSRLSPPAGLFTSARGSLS
T1 sequence (P51692 whole entry): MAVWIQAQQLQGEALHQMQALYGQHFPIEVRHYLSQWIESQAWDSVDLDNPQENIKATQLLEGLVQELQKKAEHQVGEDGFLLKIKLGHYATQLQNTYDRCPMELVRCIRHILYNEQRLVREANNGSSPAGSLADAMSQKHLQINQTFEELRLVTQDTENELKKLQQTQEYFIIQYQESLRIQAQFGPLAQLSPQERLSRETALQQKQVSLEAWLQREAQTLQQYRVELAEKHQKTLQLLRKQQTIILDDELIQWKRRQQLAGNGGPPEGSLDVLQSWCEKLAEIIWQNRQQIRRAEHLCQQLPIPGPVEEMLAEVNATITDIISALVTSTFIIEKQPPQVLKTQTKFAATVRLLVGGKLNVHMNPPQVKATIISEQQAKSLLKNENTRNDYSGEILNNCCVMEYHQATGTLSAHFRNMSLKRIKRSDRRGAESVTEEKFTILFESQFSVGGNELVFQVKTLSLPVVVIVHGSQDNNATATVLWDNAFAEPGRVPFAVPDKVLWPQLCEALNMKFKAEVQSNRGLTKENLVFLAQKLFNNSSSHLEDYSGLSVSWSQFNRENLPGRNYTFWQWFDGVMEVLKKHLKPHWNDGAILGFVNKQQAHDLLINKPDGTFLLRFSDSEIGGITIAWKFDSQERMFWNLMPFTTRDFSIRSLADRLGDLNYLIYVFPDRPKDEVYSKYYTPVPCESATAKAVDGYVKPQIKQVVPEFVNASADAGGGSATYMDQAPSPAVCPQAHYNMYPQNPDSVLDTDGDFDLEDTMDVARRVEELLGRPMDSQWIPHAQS
As to the kind of experiment: Induction of STAT5A/5B degradation in human OCI-AML2 cells measured for 18 hrs by immunoblotting analysis. It counts as cell-based.

The target in test [8] is T1, STAT5A/STAT5B. As to the kind of experiment: Induction of STAT5A/5B degradation in human OCI-M2 cells measured for 18 hrs by immunoblotting analysis. It counts as cell-based.
Test [9] concerns the target T2, Signal transducer and activator of transcription 5A (Homo sapiens, UniProt P42229).
T2 sequence (P42229 whole entry): T1 sequence (P42229 whole entry)
Nature of the test: Induction of STAT5 degradation in human SKNO-1 cells assessed as reduction in phosphorylated STAT5 level measured for 18 hrs by immunoblotting analysis. It counts as cell-based.

In test [10] the target is T2, Signal transducer and activator of transcription 5A. Nature of the test: Induction of STAT5 degradation in human Kasumi-3 cells assessed as reduction in phosphorylated STAT5 level measured for 18 hrs by immunoblotting analysis. It counts as cell-based.

Each structure is given as a SMILES string. Calls of active or inactive are those of the source. No cut-off for these calls is given here. A value given as a limit tells only on which side of the number the result lay.

As to `CN(CCCC#Cc1cccc2c1CN(C1CCC(=O)NC1=O)C2=O)C(=O)CCN(C(=O)[C@@H]1CCCN1C(=O)[C@@H](NC(=O)c1cc2cc(C(F)(F)P(=O)(O)O)ccc2s1)C(C)(C)C)c1ccc(-c2nccs2)cc1` (some centres not stated), the result with SKNO-1 and with MV4-11 [1] was inactive. Moreover, the IC50 (in general, the concentration that inhibits the measured activity by half) in [2] was 360 nM; in the test with MV4-11 [3], 180 nM. The Imax was 72% in test [4] and below 5% in [5]. Besides, the outcome with Mus musculus was Active. Besides, in the test with MV4-11 [6], the inhibition in vivo at 100 mg/kg amounted to 60%. Besides, the DC50 (usually the concentration giving 50% degradation) is 280 nM at STAT5A/STAT5B [7], 700 nM at STAT5A/STAT5B [8], 70 nM in test [9] and 250 nM in [10].
